The results in this text go back to US20170035894A1, “DRUG DELIVERY CONJUGATES FOR TREATING RESISTANT CANCER AND FOR USE IN COMBINATION THERAPY” (ENDOCYTE, INC., priority 2014, published 2017).

Each structure is given as a SMILES string.

One series relates to MDA-MB-231 tumors. Nature of the series: TNBC Tumor Assay, s.c. MDA-MB-231 xenografts. It is filed as in vivo, nu/nu mice. From the text:
METHOD. TNBC Tumor Assay. Triple negative breast cancer (TNBC) is a subtype characterized by lack of gene expression for estrogen, progesterone and Her2/neu. TNBC is difficult to treat, and the resulting death rate in patients is reportedly disproportionately higher than for any other subtype of breast cancer. A TNBC xenograft model was generated in an analogous way to the KB and M109 models described herein by implanting MDA-MB-231 breast cancer cells in nu/nu mice. Dosing was initiated when the s.c. tumors have an average volume between 110-150 (generally 130) mm^3 (t0), typically 17 days post tumor inoculation (PTI). Test animals (5/group) were injected i.v., generally three times a week (TIW), for 2-3 weeks with varying doses, such as with 1 μmol/kg to 5 μmol/kg, of the drug delivery conjugate or with an equivalent dose volume of PBS (control), unless otherwise indicated. Dosing solutions were prepared fresh each day in PBS and administered through the lateral tail vein of the mice.

Series [1] addresses T1, folate receptors (FRs) on KB cells (Homo sapiens, UniProt P15328).
T1 construct: FR-positive KB cells were heavily seeded into 24-well cell culture plates; endogenous in cells; host or cells: KB cells (human cervical carcinoma)
Nature of the series: Relative Affinity Assay (3H-folic acid displacement). It is filed as binding. On the procedure:
METHOD. Relative Affinity Assay. […] Briefly, FR-positive KB cells were heavily seeded into 24-well cell culture plates and allowed to adhere to the plastic for 18 h. Spent incubation media was replaced in designated wells with folate-free RPMI (FFRPMI) supplemented with 100 nM ^3H-folic acid in the absence and presence of increasing concentrations of test article or folic acid. Cells were incubated for 60 min at 37° C. and then rinsed 3 times with PBS, pH 7.4. […] Cell lysates were then collected and added to individual vials containing 5 mL of scintillation cocktail, and then counted for radioactivity. Negative control tubes contained only the ^3H-folic acid in FFRPMI (no competitor). Positive control tubes contained a final concentration of 1 mM folic acid, and CPMs measured in these samples (representing non-specific binding of label) were subtracted from all samples.

In a further series the test system is LNCaP. Nature of the series: In vitro activity against cancer cell lines, 3H-thymidine incorporation. It is filed as cell-based, human. The following applies: FR expression −. On the procedure:
(§1) METHOD. In vitro activity against various cancer cell lines. IC50 values were generated for various cell lines. Cells were heavily seeded in 24-well Falcon plates and allowed to form nearly confluent monolayers overnight. Thirty minutes prior to the addition of the test compound, spent medium was aspirated from all wells and replaced with fresh folate-deficient RPMI medium (FFRPMI). A subset of wells were designated to receive media containing 100 μM folic acid. The cells in the designated wells were used to determine the targeting specificity. Without being bound by theory it is believed herein that the cytotoxic activity produced by test compounds in the presence of excess folic acid, i.e. where there is competition for FR binding, corresponds to the portion of the total activity that is unrelated to FR-specific delivery. Following one rinse with 1 mL of fresh FFRPMI containing 10% heat-inactivated fetal calf serum, each well received 1 mL of medium containing increasing concentrations of test compound (4 wells per sample) in the presence or absence of 100 μM free folic acid as indicated. Treated cells were pulsed for 2 h at 37° C., rinsed 4 times with 0.5 mL of media, and then chased in 1 mL of fresh medium up to 70 h. Spent medium was aspirated from all wells and replaced with fresh medium containing 5 μCi/mL ^3H-thymidine. Following a further 2 h 37° C. incubation, cells were washed 3 times with 0.5 mL of PBS and then treated with 0.5 mL of ice-cold 5% trichloroacetic acid per well. After 15 min, the trichloroacetic acid was aspirated and the cell material solubilized by the addition of 0.5 mL of 0.25 N sodium hydroxide for 15 min. A 450 μL aliquot of each solubilized sample was transferred to a scintillation vial containing 3 mL of Ecolume scintillation cocktail and then counted in a liquid scintillation counter. Final results are expressed as the percentage of ^3H-thymidine incorporation relative to untreated controls.

For the next series, the system named is MDA-MB-231. Described as above. The class given is cell-based, human. On the procedure:
as §1

For a further series, the system named is NCl/ADR-RES-Cl2. The description is as above. The class given is cell-based, human. The procedure: as §1
The subject of another series is IGROV1. The series is described as above. It is filed as cell-based, human. On the procedure: as §1
In the next series the test system is A549. The description is as above. It is filed as cell-based, human. The following applies: FR expression −; evaluated from 0.1-100 nM. The procedure:
as §1

In a further series the test system is LU2505 NSCLC tumors. Nature of the series: Huprime NSCLC PDX tumor model. The following applies: in combination with Docetaxel. The class given is in vivo, Balb/c nu/nu mice. On the procedure:
(§2) Female Balb/c nu/nu mice were fed ad libitum with folate-deficient chow (Harlan diet #TD01013) for the duration of the experiment. Primary human NSCLC models LU1147 or LU2505 fragments (2-4 mm in diameter) were inoculated subcutaneously at the right flank of each mouse. Mice were randomized into experimental groups of 7 mice and test articles were injected through the lateral tail vein under sterile conditions in a volume of 200 μL of phosphate-buffered saline (PBS). These studies were performed at Crown Bioscience (Beijing) Inc., Ground Floor, Light Muller Building, Changping Sector of Zhongguancun Scientific Park, No. 21 Huoju Road, Changping District, Beijing, P.R. China.
(§3) Growth of each s.c. tumor was followed by measuring the tumor two times per week until a volume of 1200 mm^3 was reached. Tumors were measured in two perpendicular directions using Vernier calipers, and their volumes were calculated as 0.5×L×W^2, where L=measurement of longest axis in mm and W=measurement of axis perpendicular to L in mm.

A further series deals with LU1147 NSCLC tumors. Nature of the series: Huprime NSCLC PDX tumor model. The following applies: combined with Docetaxel (one dose of 15 mg/kg). It is filed as in vivo, Balb/c nu/nu mice. On the procedure: as §2, §3
A short description of series [2]: Maximum tolerated dose (MTD). The class given is in vivo, female Sprague-Dawley rats. On the procedure: Maximum tolerated dose (MTD). […] Test compounds were administered by i.v., BIW, 2 wks in female Sprague-Dawley rats. […] Histopathologic changes were not observed with doses of EC1456 at or below the MTD.
Another series relates to KB-DR150 tumors. Nature of the series: Vinca resistant KB-DR150 tumor model. The class given is in vivo, immunodeficient (XID) nu/nu mice.
Setting [3] is: EC1456 2 μmol/kg two times a week for two weeks.
The mark [4] stands for this setting: EC1456 4 μmol/kg once a week for two weeks.

T1 sequence (P15328 25-234): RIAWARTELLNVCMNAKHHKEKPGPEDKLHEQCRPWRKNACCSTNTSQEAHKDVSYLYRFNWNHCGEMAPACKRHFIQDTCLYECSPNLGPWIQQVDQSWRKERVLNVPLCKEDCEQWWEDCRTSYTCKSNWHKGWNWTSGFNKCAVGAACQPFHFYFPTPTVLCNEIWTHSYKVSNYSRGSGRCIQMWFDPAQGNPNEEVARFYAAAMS

Broadly, the IC50 is the concentration needed to halve the response being measured. In general, MTD refers to the largest dose that counted as tolerated. Higher therefore signals better tolerability. Take `CCCC(=O)OCN(C(=O)[C@@H](NC(=O)[C@H]1CCCCN1C)C(C)CC)[C@H](C[C@@H](OC(C)=O)c1nc(C(=O)N[C@@H](Cc2ccc(O)cc2)C[C@H](C)C(=O)NNC(=O)OCCSSC[C@@H](NC(=O)[C@H](CCC(=O)NC[C@H](O)[C@@H](O)[C@H](O)[C@H](O)CO)NC(=O)[C@@H](CCC(=O)O)NC(=O)[C@H](CCC(=O)NC[C@H](O)[C@@H](O)[C@H](O)[C@H](O)CO)NC(=O)[C@@H](CCC(=O)O)NC(=O)[C@H](CCC(=O)NC[C@H](O)[C@@H](O)[C@H](O)[C@H](O)CO)NC(=O)CC[C@@H](NC(=O)c2ccc(NCc3cnc4nc(N)[nH]c(=O)c4n3)cc2)C(=O)O)C(=O)O)cs1)C(C)C` (stereo in doubt) [EC1456]: the tumor regrowth result in the series with MDA-MB-231 tumors (2 μmol/kg i.v. TIW 2 weeks, observation window nearly 135 days) is reported as “regrowth did not occur”. The “complete responses (tumor volume reduced to zero)” value with MDA-MB-231 tumors (2 μmol/kg intravenous, three times per week, 2 consecutive weeks) is listed as 4 of 5. For the same molecule, the “Relative Affinity (a)” value in series [1] is 0.27. The IC50 with LNCaP is approximately 850 nM; in the series on MDA-MB-231 (FR expression +), 0.47 nM; with NCl/ADR-RES-Cl2 (FR expression ++), 1.4 nM; in the series on IGROV1 (FR expression +), 0.72 nM. The “Competable up to 100 nM” value in the series with MDA-MB-231 (folic acid competition), with NCl/ADR-RES-Cl2 (folic acid competition) and in the series with IGROV1 (folic acid competition) was “Yes” in each case. Besides, the “Activity (IC50)” value in the series with A549 was “Inactive (a)”. In addition, the cures in the series on LU2505 NSCLC tumors (setting [3]) stood at 100%; in the series on LU2505 NSCLC tumors (setting [4]), 100%; with LU1147 NSCLC tumors (setting [3]) it was 2; in the series on LU1147 NSCLC tumors (setting [4]), 2. Also, the PRs with LU1147 NSCLC tumors (setting [3]) and in the series with LU1147 NSCLC tumors (setting [4]) was 5 each time. In series [2] (doses at or below the MTD), the Histopathologic changes entry was “not observed”. The molecule also registered an MTD at 2 wks in series [2] (female, Sprague-Dawley, rat, in vivo, iv, BIW, 2 wks) not below 0.51 µmol/kg. Also, the “improvement of MTD over EC0531” value in [2] (i.v., BIW, 2 wks) turned out to be 65%. The “efficacy of co-administration of EC1456 and doxorubicin” value with KB-DR150 tumors (EC1456 2 μmol/kg TIW×2 + DOXIL 5 mg/kg BIW×2) is given as “enhanced technical effect over both monotherapies”. Moreover, in the series on KB-DR150 tumors (EC1456 2 μmol/kg TIW×2 vs DOXIL 5 mg/kg BIW×2), the “efficacy of EC1456 alone compared to doxorubicin (DOXIL)” value was “improved efficacy over doxorubicin”.
